Measurements from patent US8748464B2, “Use of SIRT1 activators or inhibitors to modulate an immune response” (The J. David Gladstone Institutes, priority 2008, dated 2014).

Experiments:
[1] = test system: FLAG-FoxP3 in 293 T cells; assay: Western blot of FLAG-FoxP3 (wild type or mutant) or FLAG-AML1/Runx1 expression in 293 T cells; assay type: cell-based; settings: 293 T cells
Experimental: To determine whether the three newly identified acetylated lysine residues regulate FoxP3 stability, mutants were generated in which each of three lysine residues was substituted to arginines (KR), a conservative mutation that preserves the positive charge of the residue.
To investigate the effect of SIRT1 inhibition and the three newly identified acetylation sites on FoxP3 protein stability, wild type and 3KR mutant FoxP3 protein expression was measured after treatment with cycloheximide (CHX), a general inhibitor of protein translation.
(B) Scheme of acetylated lysine residues identified by mass spectrometry using immunoprecipitated FLAG-FoxP3 protein. The murine protein is shown.

[2] = test system: FLAG-FoxP3 in 293 T cells; assay: Immunoprecipitation/western blot of acetylated FLAG-FoxP3 or HA-AML1/Runx1 in 293 T cells cotransfected with p300; assay type: cell-based
Excerpt: FIGS. 10A-D. SIRT1 interacts with FoxP3 and inhibition of SIRT1 deacetylase activity increases acetylation of FoxP3. (A) Communoprecipitation/western blot analysis of FLAG-tagged FoxP3 and HA-tagged SIRT1 after transfection of corresponding expression vectors or empty vector controls into 293T cells. (B) Communoprecipitation assay of SIRT1 and FoxP3 deletion mutants. A schematic summary of the binding of FoxP3 mutants to SIRT1 is shown. The forkhead box (FH) indicates the DNA binding domain ZnF, zinc finger domain; LZ, leucine zipper. […] An expression vector for the p300 acetyltransferase was cotransfected with FoxP3. (D) The same experiment as in (C) using HA-AML1/Runx1. Immunoprecipitations were performed with either anti-FLAG antibody coupled to agarose (α-FLAG agarose) (C) or anti-hemagglutinin antibody coupled to agarose (α-HA agarose) (D) and western blotting with rabbit polyclonal antibody to acetyl-lysine (α-acetyl lysine) (α-AcK), α-FLAG or α-HA antibodies.

SIRT1 [3] = target: T1, SIRT1 (Homo sapiens, UniProt Q96EB6); assay: In vitro deacetylation of acetylated recombinant p65 by recombinant SIRT1, western blot α-AcK310 p65; assay type: biochemical; parameters: purchased Biomol; settings: synthetic Tat 0.1 μg or nicotinamide 10 mM, preincubated 15 min; NAD 1 mM, 3 h, 37° C.
T1 sequence (Q96EB6 1-747): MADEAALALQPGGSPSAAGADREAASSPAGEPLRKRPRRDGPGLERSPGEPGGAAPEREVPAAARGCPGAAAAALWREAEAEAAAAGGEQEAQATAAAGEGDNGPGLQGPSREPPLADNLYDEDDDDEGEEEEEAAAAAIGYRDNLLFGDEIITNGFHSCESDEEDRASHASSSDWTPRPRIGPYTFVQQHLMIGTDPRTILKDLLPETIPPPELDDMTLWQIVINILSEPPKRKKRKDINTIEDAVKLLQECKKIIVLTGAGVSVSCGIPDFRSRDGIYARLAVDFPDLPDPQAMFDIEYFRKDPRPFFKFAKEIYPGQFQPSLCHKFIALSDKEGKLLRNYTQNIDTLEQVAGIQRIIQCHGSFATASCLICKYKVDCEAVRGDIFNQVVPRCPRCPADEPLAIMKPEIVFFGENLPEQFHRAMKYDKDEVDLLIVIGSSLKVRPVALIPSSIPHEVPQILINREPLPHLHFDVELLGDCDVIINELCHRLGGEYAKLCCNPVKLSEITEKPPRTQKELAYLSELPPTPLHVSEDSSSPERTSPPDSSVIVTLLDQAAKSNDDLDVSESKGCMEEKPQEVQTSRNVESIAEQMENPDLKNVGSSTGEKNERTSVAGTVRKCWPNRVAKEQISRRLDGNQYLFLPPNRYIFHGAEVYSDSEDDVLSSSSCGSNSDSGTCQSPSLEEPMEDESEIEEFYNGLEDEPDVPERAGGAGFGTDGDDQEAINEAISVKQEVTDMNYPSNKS
Experimental: Recombinant p65 protein prepared from baculovirus-infected Sf9 insect cells (BD Biosciences) was acetylated by immunoprecipitated p300 overexpressed in 293 cells as previously described (Chen et al., 2005). Acetylated p65 protein was incubated with recombinant SIRT1 (1 μg/5U; Biomol) in SIRT1 deacetylase buffer (50 mM Tris-HCl pH 9, 4 mM MgCl2, 0.2 mM DTT) in the presence of NAD (1 mM; Sigma) for 3 h at 37° C. […] Reactions were stopped by the addition of SDS loading buffer, boiled, and after brief centrifugation, analyzed by western blotting with rabbit a-AcK310 p65 (Chen et al., 2005) or mouse α-p65 antibodies (sc-8008, Santa Cruz).
Next, we examined the effect of Tat on deacetylation of p65. In vitro acetylated recombinant p65 protein was incubated with recombinant SIRT1 and synthetic Tat proteins. The extent of deacetylation was determined by western blotting with antibody specific for acetylated K310 in p65 (α-AcK310 p65). […]
FIGS. 5A-D. Tat inhibits the SIRT1 deacetylase activity (A) In vitro deacetylation assay of recombinant SIRT1 in the presence of synthetic Tat (aa 1-72). The rate of 1 μM SIRT1 was calculated for 200 μM fluorogenic deacetylase substrate (aa 379-382 of p53) in the presence of twelve concentrations of synthetic Tat. […] Total cell lysates were analyzed by western blotting with α-AcK310 p65 or α-T7 antibodies. […]

Jurkat T cells [4] = assay: Real-time RT-PCR of IL-2 mRNA in α-CD3/28-activated Jurkat T cells; assay type: cell-based, human
Experimental: Viral supernatant containing 1500 ng of p24 was used to infect 18×10^6 JurkatT cells. Infections were carried out in 6-well plates at 2400 rpm in a Beckman-Coulter centrifuge for 2 h at 32° C. in the presence of polybrene (1 μg/ml, Sigma).
Total RNA was extracted using RNA STAT-60 reagent (Tel-Test) according to the manufacturer's instruction. The first strand cDNA was generated using 2 μg of total RNA and SuperScript reverse transcriptase (Invitrogen). […] Relative gene expression ratios between stimulated and nonstimulated conditions were calculated by the equation, ratio=2^−ΔΔCt, comparative Ct method (Applied Biosystems).
Infected cultures were activated for 2 h and 8 h with α-CD3/28 antibodies. (B) Real-time RT-PCR analysis of IL-2 mRNA levels in infected cultures 2 h after activation with α-CD3/28.

Jurkat T cells [5] = assay: IL-2 protein ELISA in supernatant of α-CD3-stimulated Jurkat T cells infected with EF-1α-GFP or EF-1α-Tat-GFP viruses; assay type: cell-based, human; settings: 16 hrs
Experimental: Lentiviral vectors, which contained the heterologous elongation factor 1α (EF-1α) promoter driving Tat and GFP expression, were generated. High titer viral stocks were produced and used to infect Jurkat T cells. […] Infected cultures were stimulated with antibodies specific for the CD3 receptor and treated with increased concentrations of resveratrol (0.4 μM, 2 μM, and 10 μM), a known SIRT1 activator for 16 hrs. IL-2 protein was measured in the culture supernatant by ELISA assay. Following stimulation with α-CD3 antibody, IL-2 protein was superinduced ˜4-fold by wild type Tat (FIG. 8A). In cells expressing Tat, ˜2300 pg/ml of IL-2 protein was detected in response to α-CD3 treatment, whereas in control cells, only ˜600 pg/ml of IL-2 protein was induced.
The effects of small molecule of SIRT1 ([…]) on T cell hyperactivation in Tat-expressing cells were examined. Jurkat T cells were infected with EF-1α-GFP or EF-1α-Tat-GFP viruses (FIG. 8B). Infected cultures were stimulated with α-CD3 antibody and treated with SRT2183 (0.2, 1, and 5 μM) for 16 hrs.
FIGS. 8A and 8B. Resveratrol and small molecule activator of SIRT1 (SRT2183) suppresses T cell hyperactivation by Tat. (A) IL-2 protein levels measured by ELISA in the supernatant of infected cultures. 24 hrs after infection with EF1α-GFP and EF1α-Tat-GFP viruses, Jurkat T cells were stimulated with α-CD3 antibody in the presence of increased concentrations of resveratrol (0.4, 2, and 10 μM) for 16 hrs. (B) 24 hrs after infection with EF1α-GFP and EF1α-Tat-GFP viruses, Jurkat T cells were stimulated with α-CD3 antibody in the presence of increased concentrations of SRT2183 (0.2, 1, and 5 μM) for 16 hrs. IL-2 protein levels were measured by ELISA in the supernatant of infected cultures.

SIRT1 [6] = target: T1, SIRT1; settings: Howitz et al. 2003; Baur et al. 2006; cited from earlier work

Row | Structure (SMILES) | FoxP3 mRNA levels [1] | FoxP3 protein expression ([1]; nicotinamide 5 mM, Ex-527 50 μM or TSA 400 nM, 16 hours) | acetylation levels of FoxP3 [2] | acetylation of AML1/Runx1 [2] | deacetylation of p65 (K310) by SIRT1 (SIRT1 [3]) | effect of combination with Tat on IL-2 expression (Jurkat T cells [4]) | IL-2 mRNA levels (Jurkat T cells [4]; noninfected Jurkat T cells, nicotinamide 10 mM 1 h before α-CD3/28) | ability of Tat to superinduce IL-2 production (Jurkat T cells [5]; 10 μM) | superinduction of IL-2 protein in Tat-expressing cells (Jurkat T cells [5]; 0.4, 2 and 10 μM) | activation of SIRT1 enzymatic activity (SIRT1 [6])
1 | NC(=O)c1cccnc1 [nicotinamide] | No effect | upregulation of protein expression | increased acetylation levels of FoxP3 | increased to the same extent | same inhibition of p65 deacetylation | no additive effect | superinduced IL-2 mRNA to similar levels as Tat | – | – | –
2 | Oc1ccc(/C=C/c2cc(O)cc(O)c2)cc1 [resveratrol] | – | – | – | – | – | – | – | completely impaired | abolished by resveratrol in a concentration dependent manner | (weak) reversible activator
